Consider four compounds from patent WO2023132380A1, “Polynucleotide for cancer treatment encoding 5'-nucleotidase modified protein” (Bpgene Co Ltd, priority 2022, dated 2023).

The target in assay [1] is Human cytosolic 5'deoxyribonucleotidase hdNT-1 (Homo sapiens, UniProt Q8TCD5). Conditions: Preferred substrate, References: J. Biol. Chem. 265:6589-6595 (1990), Biochemical Pharmacol. 66: 471-479 (2003); cited from earlier work.
Assay [2] addresses Murine cytosolic 5'deoxyribnucleotidase mdNT-1 (Mus musculus, UniProt Q9JM14). Particulars: Preferred substrate, References: J. Biol. Chem. 275:5409-5415 (1990), Biochemical Pharmacol. 66: 471-479 (2003); cited from earlier work.
Assay [3] deals with PBS2 TMP phosphohydrolase (T001), Thymidylate 5'-phosphohydrolase derived from Bacteriophage PBS2, SEQ ID NO: 3. Particulars: Preferred substrate, References: Methods Enzymol. 51:285-290 (1978), Also In house data; cited from earlier work.
Assay [4] deals with T1, Human mitochondrial 5'doxyribonucleotidase NT5M (hdNT-2) (Homo sapiens, UniProt Q9NPB1). Particulars: Preferred substrate, References: Biochem. 46:13809-13818 (2007), Biochemical Pharmacol. 66: 471-479 (2003); cited from earlier work.
T1 sequence (Q9NPB1 32-228): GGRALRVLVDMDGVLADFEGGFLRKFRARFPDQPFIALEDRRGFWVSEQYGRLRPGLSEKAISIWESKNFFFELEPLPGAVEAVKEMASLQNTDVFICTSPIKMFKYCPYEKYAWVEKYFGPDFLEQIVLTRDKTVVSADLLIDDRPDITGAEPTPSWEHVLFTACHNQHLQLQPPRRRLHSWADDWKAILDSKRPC
Assay [5] concerns the target T1, Human mitochondrial 5'doxyribonucleotidase NT5M (hdNT-2). Description: Preferred substrate (km), Table 4: NT5M (hdNT-2). In kind it is biochemical. Particulars: human NT5M compared with T001, according to Table 4.

Structures are written as SMILES.

The Km is the concentration of substrate that gives half-maximal velocity.

Murine cytosolic 5'deoxyribnucleotidase mdNT-1, sequence (Q9JM14 whole entry): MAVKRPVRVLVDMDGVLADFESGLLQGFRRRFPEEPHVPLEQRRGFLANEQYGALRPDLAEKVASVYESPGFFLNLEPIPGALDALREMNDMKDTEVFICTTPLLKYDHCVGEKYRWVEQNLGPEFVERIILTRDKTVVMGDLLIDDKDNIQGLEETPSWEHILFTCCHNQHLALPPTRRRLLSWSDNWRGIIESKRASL
Human cytosolic 5'deoxyribonucleotidase hdNT-1, sequence (Q8TCD5 whole entry): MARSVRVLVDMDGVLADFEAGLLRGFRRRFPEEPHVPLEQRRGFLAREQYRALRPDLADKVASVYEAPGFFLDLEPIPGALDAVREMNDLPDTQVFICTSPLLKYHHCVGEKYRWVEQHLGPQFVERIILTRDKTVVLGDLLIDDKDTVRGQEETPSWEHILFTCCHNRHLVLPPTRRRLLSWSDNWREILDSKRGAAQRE

As for `Nc1ncnc2c1ncn2[C@H]1C[C@H](O)[C@@H](COP(=O)(O)O)O1` [dAMP], the Km in assay [1] is 3000 µM; in assay [2], 1000 µM.

Consider `Nc1nc2c(ncn2[C@H]2C[C@H](O)[C@@H](COP(=O)(O)O)O2)c(=O)[nH]1` [dGMP], for which the Km in assay [3] was 700 µM; in assay [4], 90 µM; in assay [1] it was 3300 µM; in assay [2] it was 1200 µM.

For `Cc1cn([C@H]2C[C@H](O)[C@@H](COP(=O)(O)O)O2)c(=O)[nH]c1=O` [dTMP, thymidylate], the “affinity for dTMP, times lower” value in assay [5] is given as “about 30 times”. The Km was 10 µM in assay [3], 300 µM in assay [4], 1500 µM in assay [1] and 1400 µM in assay [2].

In the case of `O=c1ccn([C@H]2C[C@H](O)[C@@H](COP(=O)(O)O)O2)c(=O)[nH]1` [dUMP], the Km in assay [3] is 800 µM; in assay [4] it was 160 µM; in assay [1] it was 1500 µM; in assay [2], 800 µM.
